Data taken from ChEMBL document CHEMBL1142445, “Carbonic anhydrase inhibitors: inhibition of Plasmodium falciparum carbonic anhydrase with aromatic/heterocyclic sulfonamides-in vitro and in vivo studies” (Bioorg Med Chem Lett, 2008).
Calls of active or inactive are those of the source. The calls are words filed in the database; no cut-off is given here.

Key:
[1] = (§1) Inhibition of Plasmodium falciparum recombinant carbonic anhydrase
[2] = system: Plasmodium falciparum; experiment: Ex vivo inhibition of Plasmodium falciparum growth in cultured cells after 48hrs as [3H]hypoxanthine uptake; assay type: functional, organism-based
[3] = system: Plasmodium falciparum; experiment: as §1
[4] = system: BC; experiment: Cytotoxicity against human BC cells; assay type: functional, cell-based
[5] = system: Plasmodium berghei; experiment: Antimalarial activity against Plasmodium berghei infected mice (Mus musculus) at 2.5 to 25 mg/kg; assay type: functional, organism-based
[6] = system: KB; experiment: Cytotoxicity against human KB cells; assay type: functional, cell-based
[7] = system: Plasmodium berghei; experiment: Antimalarial activity against Plasmodium berghei infected mice (Mus musculus); assay type: functional; conditions: read-out: ID50 (the source's name)

SMILES | Ki [1] | IC50 [2] | further results
NS(=O)(=O)c1ccc(NNC(=O)c2cc3ccccc3oc2=O)cc1 | 4.06 µM | > 50 µM | 
CN(C)c1ccc(/C=N/CCCc2ccc(S(N)(=O)=O)cc2)cc1 | > 25 µM | > 50 µM | 
COc1ccc2c(CC(=O)Nc3cccc(S(N)(=O)=O)c3)cc(=O)oc2c1 | 4.58 µM | > 50 µM | 
C[C@@H]1CC[C@H]2[C@@H](C)C(=O)O[C@@H]3O[C@@]4(C)CC[C@@H]1[C@]32OO4 |  |  | Activity [3]: inactive
CCN(CC)C(=S)SNCc1ccc(S(N)(=O)=O)cc1 | 8.39 µM | > 50 µM | 
CC(=O)NS(=O)(=O)c1ccc(NC(=S)Nc2ccc(S(N)(=O)=O)cc2)cc1 | 4.62 µM | > 50 µM | 
COc1ccc2c(CC(=O)Nc3ccc(S(N)(=O)=O)cc3)cc(=O)oc2c1 | 0.97 µM | > 50 µM | 
NS(=O)(=O)c1ccc(NS(=O)(=O)c2ccc(NC(=O)N(c3ccccc3)c3ccccc3)cc2)cc1 | 16.5 µM | > 50 µM | 
NS(=O)(=O)c1cc(S(N)(=O)=O)c(C(F)(F)F)cc1NC(=O)c1cc2ccccc2oc1=O | 9.03 µM | > 50 µM | 
CN(C)c1ccc(/C=N/c2ccc(S(N)(=O)=O)cc2)cc1 | > 25 µM | > 50 µM | 
NS(=O)(=O)c1ccc(C/N=C/c2ccccc2Cl)cc1 | 0.25 µM | 3.89 µM | Activity [4]: inactive; Activity [5]: inactive; Activity [6]: inactive
NS(=O)(=O)c1ccc(NC(=O)c2ccc(S(N)(=O)=O)cc2)cc1 | 3.05 µM | > 50 µM | 
NS(=O)(=O)c1nnc(NC(=O)c2c(F)c(F)c(F)c(F)c2F)s1 | 3.44 µM | > 50 µM | 
NS(=O)(=O)c1nnc(NS(=O)(=O)c2c(F)c(F)c(F)c(F)c2F)s1 | 2.58 µM | > 50 µM | 
NS(=O)(=O)c1nnc(NS(=O)(=O)C(F)(F)C(F)(F)C(F)(F)C(F)(F)C(F)(F)C(F)(F)C(F)(F)C(F)(F)F)s1 | 0.192 µM | > 50 µM | 
NS(=O)(=O)c1cccc(NC(=O)c2cc3ccccc3oc2=O)c1 | > 25 µM | > 50 µM | 
NS(=O)(=O)c1ccc(NC(=O)c2cc3ccccc3oc2=O)cc1 | 5.82 µM | > 50 µM | 
NS(=O)(=O)c1ccccc1NC(=O)c1cc2ccccc2oc1=O | 18.5 µM | > 50 µM | 
COc1ccc2c(CC(=O)Nc3cc(C(F)(F)F)c(S(N)(=O)=O)cc3S(N)(=O)=O)cc(=O)oc2c1 | 2.52 µM | > 50 µM | 

SMILES | Ki [1] | IC50 [2] | further results
COc1ccc2c(CC(=O)Nc3ccccc3S(N)(=O)=O)cc(=O)oc2c1 | 1.44 µM | > 50 µM | 
NS(=O)(=O)c1ccc(CNC(=O)N(c2ccccc2)c2ccccc2)cc1 | 16 µM | > 50 µM | 
NS(=O)(=O)c1ccc(CNC(=O)c2cc3ccccc3oc2=O)cc1 | 5.05 µM | > 50 µM | 
CCN(CC)CCCC(C)Nc1ccnc2cc(Cl)ccc12 (stereo not drawn) [CHLOROQUINE] |  |  | Activity [3]: inactive; ED50 [7]: 5 mg/kg
NS(=O)(=O)c1ccccc1NC(=O)N(c1ccccc1)c1ccccc1 | 1.99 µM | > 50 µM | 
CCN(CC)C(=S)SNc1ccc(S(N)(=O)=O)cc1 | 3 µM | > 50 µM | 
NS(=O)(=O)c1ccc(/N=C/c2ccc3ccccc3c2Br)cc1 | 4.16 µM | > 50 µM | 
CN(C)c1ccc(/C=N/Cc2ccc(S(N)(=O)=O)cc2)cc1 | > 25 µM | > 50 µM | 
NC(=S)Nc1ccc(S(N)(=O)=O)cc1 | 2.1 µM | > 50 µM | 
NS(=O)(=O)c1ccc(NC(=O)Nc2ccc(Cl)c(Cl)c2)cc1 | 5.58 µM | > 50 µM | 
CC(=O)Nc1nnc(S(N)(=O)=O)s1 [ACETAZOLAMIDE] | 0.315 µM | 20 µM | Activity [4]: inactive; Activity [5]: inactive; Activity [6]: inactive
NS(=O)(=O)c1ccccc1NS(=O)(=O)c1c(F)c(F)c(F)c(F)c1F | 3.06 µM | > 50 µM | 
NS(=O)(=O)c1nnc(NC(=S)NC(=O)Nc2ccccc2)s1 | 6.73 µM | > 50 µM | 
Cn1ccnc1/C=N/CCCc1ccc(S(N)(=O)=O)cc1 | > 25 µM | > 50 µM | 
C=C[C@H]1CN2CC[C@H]1C[C@H]2[C@H](O)c1ccnc2ccc(OC)cc12 |  |  | Activity [3]: inactive
COc1ccc2c(CC(=O)NNc3ccc(S(N)(=O)=O)cc3)cc(=O)oc2c1 | 3.51 µM | > 50 µM | 
NS(=O)(=O)c1ccc(CCNC(=O)c2cc3ccccc3oc2=O)cc1 | 13.2 µM | > 50 µM | 
NS(=O)(=O)c1ccc(CNC(=S)NC(=O)c2ccc(Cl)c(Cl)c2)cc1 | 0.18 µM | 1 µM | Activity [4]: inactive; ED50 [7]: 10 mg/kg; Activity [6]: inactive
Cn1nc(S(N)(=O)=O)s/c1=N/C(=O)c1c(F)c(F)c(F)c(F)c1F | 6.87 µM | > 50 µM | 
